# Reference: patent US9303021B2, “Methods for treating cognitive disorders using 3-aryl-3-hydroxy-2-amino-propionic acid amides, 3-heteroaryl-3-hydroxy-2-amino-propionic acid amides and related compounds” (Allergan, Inc., priority 2007, dated 2016)
# Tests used:
# C57B/6 male mice = assay: Passive (inhibitory) avoidance task; type: in vivo; details: for Training latency Day 0 (latency to enter the dark/shock compartment): Day 0 is pre-treatment, N = 6/group; for Training latency Day 0 (latency to enter the dark/shock compartment) / Testing latency Day 1 (latency to enter the dark/shock compartment) / Testing latency Day 4 (latency to enter the dark/shock compartment) / Testing latency Day 7 (latency to enter the dark/shock compartment): in s; for Testing latency Day 1 (latency to enter the dark/shock compartment) / Testing latency Day 4 (latency to enter the dark/shock compartment) / Testing latency Day 7 (latency to enter the dark/shock compartment): max trial 180 sec; for memory for the shock-associated environment: IP post-training injections, young mice, versus vehicle
# Text: (§1) The passive avoidance task exploits the tendency for rodents to avoid environments previously associated with an aversive stimulus (e.g. shock) and is therefore a reliable measure of emotional memory. The Morris water maze (MWM) task, a test of spatial learning and memory, requires that the animal learns the spatial locations of various extra-maze cues in order to accurately locate an escape platform that is hidden beneath the surface of the water in a water tank.
# Table 2, below, indicates the effects of compounds of the invention in a passive avoidance task (latency to enter the dark/shock compartment as dependent variable). Data were analyzed with One-Way ANOVAs followed by Bonferroni-corrected post-hoc measures (required P value dependent upon number of comparisons). The table below includes data from Vehicle-treated mice and mice treated with Compound A and Compound B.
# All treatments were administered IP immediately post-training.
# Passive Inhibitory Avoidance
# C57B/6 male mice (20-25 g; n=6-8/group) were used in this study.
# One Day 0, animals were individually placed in the bright side of a 2-chambered inhibitory avoidance box. Mice were given 35 seconds to acclimate after which a door between the two compartments was lifted and the animals were allowed to cross over into the dark compartment. Once they crossed over, the gate would close and the animal would receive a mild (0.15 mA, 2 sec) footshock. Memory retention for the shock-associated environment was evaluated 24 hours (Day 1), 4 (Day 4) and 7 (Day 7) days later. On each of the three memory retention tests (Days 1, 4, and 7), the mouse was given 15 seconds to acclimate before the gate was lifted. Latency to enter the dark (shock) compartment was measured and considered an index of passive fear avoidance. Maximum trial length=180 sec.
# aged rats = assay: Morris water maze task; type: in vivo
# Text: as §1
# Table 3, below, indicates the effects of Compound C in the Morris water maze task (mean escape latencies across testing days are shown).
# Data were analyzed with a Mann-Whitney U Test. Mean escape latency indicates the group mean over three sessions to escape onto the hidden platform. Data are shown for days 7-11 (the water maze training days); animals were dosed twice daily (PO) with 10 mg/kg Compound No. 1 or vehicle (as indicated) on Days 1-6 prior to water maze training.
# The Morris Maze consisted of a circular water tank (150 cm in diameter) filled with water and maintained at 27° C. with an escape platform (15 cm in diameter) 18 cm from the perimeter always in the same position 2 cm beneath the surface of the water. The water was made opaque by addition of a non-toxic coloring agent rendering the platform invisible. The testing was performed under light of moderate intensity.
# The animals were given 5 training sessions over 5 consecutive days. Each training session consisted of 3 consecutive trials in the Morris Maze separated by 120 seconds. For each trial the animal was placed in the maze at one of two starting points equidistant from the escape platform and allowed to find the escape platform. The animal was left on the escape platform for 60 seconds followed by a 60-second rest in an individual cage before starting a new trial. […] During the 3 trials the animals started the maze from the different starting points in a randomly determined order per animal.
# The trials were video-recorded and the behavior of the animals was analyzed using a video-tracking system (Panlab: Smart). The principal measure taken was the escape latency (time to find the hidden platform) at each trial. Additional measures (path length (distance traveled to find the hidden platform) and average speed) were also measured.
# Aged animals show amnesia in this task as indicated by a lower capacity to reduce their escape latencies from trial to trial.
# 15 aged rats were studied per group. The experiment also included a young control group. The test was performed blind.
# Compound C was evaluated at the dose of 10 mg/kg, administered p.o., and compared with a vehicle control group. The animals received the assigned treatment twice daily for 6 days prior to water-maze training. Twice daily administration continued during training, with one administration 60 minutes before each training session and the second administration between either 8.30-9.30 am or 4:30-5:30 pm, whichever was furthest from the training session for that particular animal.
# The experiment therefore included 3 groups.
# Data were analyzed by comparing treated groups with aged control using Mann Whitney U tests. In addition, the data were submitted to a two-factor analysis of variance (with age and session as factors, with repeated measures for session).
# [1] = 1 mg/kg IP given immediately post-training
# [2] = 1 mg/kg IP immediately post-training
# [3] = 10 mg/kg IP given immediately post-training
# [4] = 10 mg/kg IP immediately post-training
SMILES,Training latency Day 0 (latency to enter the dark/shock compartment) (C57B/6 male mice; [1]),Testing latency Day 1 (latency to enter the dark/shock compartment) (C57B/6 male mice; [2]),Testing latency Day 4 (latency to enter the dark/shock compartment) (C57B/6 male mice; [2]),Testing latency Day 7 (latency to enter the dark/shock compartment) (C57B/6 male mice; [2]),Training latency Day 0 (latency to enter the dark/shock compartment) (C57B/6 male mice; [3]),Testing latency Day 1 (latency to enter the dark/shock compartment) (C57B/6 male mice; [4]),Testing latency Day 4 (latency to enter the dark/shock compartment) (C57B/6 male mice; [4]),Testing latency Day 7 (latency to enter the dark/shock compartment) (C57B/6 male mice; [4]),memory for the shock-associated environment (C57B/6 male mice),"escape latency of aged rats over the training period (aged rats; 10 mg/kg twice daily for 6 days prior to and during the experiment, compared with aged controls)","effect on escape latency, pooled data of the last 3 training sessions (aged rats; 10 mg/kg twice daily, aged rats versus aged controls)","Mean Escape Latency Day 7 (aged rats; aged rats, 10 mg/kg p.o. twice daily, Day 7 (1st training day)) [s]","Mean Escape Latency Day 8 (aged rats; aged rats, 10 mg/kg p.o. twice daily, Day 8) [s]","Mean Escape Latency Day 9 (aged rats; aged rats, 10 mg/kg p.o. twice daily, Day 9)","Mean Escape Latency Day 10 (aged rats; aged rats, 10 mg/kg p.o. twice daily, Day 10) [s]","Mean Escape Latency Day 11 (aged rats; aged rats, 10 mg/kg p.o. twice daily, Day 11) [s]"
N[C@@H](C(=O)N1CCCCC1)[C@@H](O)c1ccsc1 [Compound B],6.58,95.42,81,43.55,8.43,126.27,83.4,56.22,significantly improved memory,,,,,,,
N[C@@H](C(=O)N1CCCC1)[C@@H](O)c1ccncc1 [Compound C],,,,,,,,,,decreased the escape latency,statistically significant,69.9 ± 4.0,49.3 ± 5.4,41.0 ± 1.8 ⋄ sec,28.0 ± 2.2,30.4 ± 3.4
N[C@@H](C(=O)N1CCCC1)[C@@H](O)c1ccncc1 [Compound A],14.26,64.34,65.52,54.32,9.88,82.58,58.33,47.87,significantly improved memory,,,,,,,
